One compound from patent US20150175877A1, “ENVIRONMENTALLY ACCEPTABLE MULTIFUNCTIONAL ADDITIVE” (SCHLUMBERGER TECHNOLOGY CORPORATION, priority 2013, published 2015) can be followed below.

This assay has as its system bacteria in North Sea location water. The assay is described as follows: Bacteria growth study in water using dipslides. Particulars: 35° C., dipslide; for Bacteria count: two replicated tests. The format is cell-based. The protocol: Bacteria Growth Study at 35° C. [95° F.]
Following is the qualitative study of bacteria growth in water using dipslides. A dipslide is used to test the presence of microorganisms in liquids. Dipslides are the fastest and easiest way to measure the microbial activity in liquid-based systems and in this testing it is used to evaluate the performance of Bodoxin AE.

On to `OCOCCOCO` [Bodoxin AE, (ethylenedioxy)dimethanol], for which the “Bacteria count in location water when biocide is used (in words)” value (compared with tap or distilled water) is “reduced significantly reaching the same level as tap or distilled water”. The Bacteria count is <10^3 (CFU/ml) (biocide conc. 0.50 gpt), <10^3 (CFU/ml) (biocide conc. 1.00 gpt) and <10^3 (CFU/ml) (biocide conc. 1.50 gpt).
